Key:
[1] = test system: islet enriched pancreatic cells; test: Ad-KLF4 with and without Rho-kinase inhibitor Y27632, gene expression; assay type: cell-based, human; conditions: Y27632 20 uM; up to 10 days post infection
Experimental: FIG. 11. […] A one-way ANOVA was performed with Dunnett post hoc test comparing treatment groups. […] B: Samples were fixed and permeabilised at day 6 for E-cadherin and cleaved caspase-3.
Total RNA was extracted using TRIzol® and treated with DNaseI (both Life Technologies) followed by cDNA synthesis using 1 μg of RNA per sample. qRT-PCR mixtures were prepared using SensiMix II probe kit (Bioline, London, UK) and TaqMan gene expression assays (Applied Biosystems, Paisley, UK) as per manufacturer's instructions. cDNA was amplified on Roche LightCycler 480® for 50 cycles. Samples were run in triplicate and normalised to glyceraldehyde 3-phosphate dehydrogenase (GAPDH) and/or 60S ribosomal protein L13a (RPL13a). Data was analysed using the 2^−ΔΔCT method (Brodsky et al., 1999). Statistical analysis was performed using GraphPad Prism software and the Student t test or one-way/two-way ANOVA, followed by the Dunnett post hoc test, were used as appropriate.
We next hypothesised that adjusting the cell culture environment to promote survival of newly formed epithelial cells would enhance redifferentiation.

[2] = test system: reprogrammed human exocrine pancreatic cells; test: RT-qPCR of cells reprogrammed (siARX) with or without zinc; assay type: cell-based; conditions: ZnCl2 10 μM; partly attributed to increased PAX4 mRNA
Experimental: FIG. 18. RT-qPCR analysis of the three main endocrine hormones insulin (INS), glucagon (GCG) and somatostatin (SST) and the transcription factors PDX1, PAX4, MAFA, NEUROD, NGN3 and NKX6.1 in untreated (N/A) or cells reprogrammed (siARX) in the absence or presence of ZnCl2 (10 μM). Expression was normalised to glyceraldehyde 3-phosphate dehydrogenase. Data are representative of triplicate experiments and represented as mean+/−standard error of the mean.
Human exocrine fractions were thawed and plated on tissue culture 9 cm^2 dishes (Greiner, Stonehouse, UK) and cultured for two days in RPMI 1640 (Gibco, Life Technologies) supplemented with 10% foetal bovine serum (FBS), 10 mM HEPES, 1 mM sodium pyruvate (all from Gibco) and 75 μM β-mercaptoethanol (Sigma Aldrich). After 48 h, the cells were incubated for another 72 h in serum free medium (SFM) prepared with RPMI 1640, insulin-transferrin-selenium (Gibco) and 1% bovine serum albumin (Sigma), supplemented with 10 μM SB431542, 2 μM Y27632, 1 μM 5-Aza-2′deoxycytidine and 10 mM sodium butyrate (all from Sigma). On the next day the cells were incubated for 4 h with the adenoviruses encoding pancreatic transcription factors PDX1, MAFA, NGN3 and PAX4. On the following day the medium was changed for SFM supplemented with 1 nM betacellulin (R&D systems, Abingdon, UK), 10 nM exendin-4 and 10 mM nicotinamide (both from Sigma). […]

[3] = test system: reprogrammed human exocrine pancreatic cells; test: C-peptide ELISA of cell extracts, reprogrammed (siARX) with or without ZnCl2; assay type: cell-based; conditions: ZnCl2 10 μM; p<0.01 relative to siARX
Experimental: FIG. 19. C-peptide ELISA measurements of cell extracts from untreated cells (N/A) or cells reprogrammed (siARX) in the absence or presence of ZnCl2 (10 μM). C-peptide levels were expressed level to protein content and represent […] (n=3). ***p<0.001 relative to NA and **p<0.01 relative to siARX.
Human exocrine fractions were thawed and plated on tissue culture 9 cm^2 dishes (Greiner, Stonehouse, UK) and cultured for two days in RPMI 1640 (Gibco, Life Technologies) supplemented with 10% foetal bovine serum (FBS), 10 mM HEPES, 1 mM sodium pyruvate (all from Gibco) and 75 μM β-mercaptoethanol (Sigma Aldrich). After 48 h, the cells were incubated for another 72 h in serum free medium (SFM) prepared with RPMI 1640, insulin-transferrin-selenium (Gibco) and 1% bovine serum albumin (Sigma), supplemented with 10 μM SB431542, 2 μM Y27632, 1 μM 5-Aza-2′deoxycytidine and 10 mM sodium butyrate (all from Sigma). On the next day the cells were incubated for 4 h with the adenoviruses encoding pancreatic transcription factors PDX1, MAFA, NGN3 and PAX4. On the following day the medium was changed for SFM supplemented with 1 nM betacellulin (R&D systems, Abingdon, UK), 10 nM exendin-4 and 10 mM nicotinamide (both from Sigma). The medium was changed every two days for another 6 days before harvesting. […]

| SMILES | gene expression, Ad-KLF4 with vs without Y27632 [1] | insulin gene expression [2] | insulin (C-peptide) protein content [3] |
| --- | --- | --- | --- |
| C[C@@H](N)[C@H]1CC[C@H](C(=O)Nc2ccncc2)CC1 [Y27632] | no significant difference |  |  |
| [Cl-].[Cl-].[Zn+2] [ZnCl2] |  | significant effect | stimulatory effect |

Source: patent US20170175081A1, “Methods of Obtaining Islet Cells” (The University Court of the University of Aberdeen, priority 2014, published 2017)
